The results in this text go back to patent publication US20260070902A1, “SULFONYL DERIVATIVES AS CCR6 INHIBITORS” (Hoffmann-La Roche Inc., priority 2022, published 2026).

For orientation: IC50 means the midpoint of a concentration-inhibition curve.

Format in all cases: cell-based
Test [1] addresses T1, human CCR6 (Homo sapiens, UniProt P51684).
T1 sequence (P51684 1-374): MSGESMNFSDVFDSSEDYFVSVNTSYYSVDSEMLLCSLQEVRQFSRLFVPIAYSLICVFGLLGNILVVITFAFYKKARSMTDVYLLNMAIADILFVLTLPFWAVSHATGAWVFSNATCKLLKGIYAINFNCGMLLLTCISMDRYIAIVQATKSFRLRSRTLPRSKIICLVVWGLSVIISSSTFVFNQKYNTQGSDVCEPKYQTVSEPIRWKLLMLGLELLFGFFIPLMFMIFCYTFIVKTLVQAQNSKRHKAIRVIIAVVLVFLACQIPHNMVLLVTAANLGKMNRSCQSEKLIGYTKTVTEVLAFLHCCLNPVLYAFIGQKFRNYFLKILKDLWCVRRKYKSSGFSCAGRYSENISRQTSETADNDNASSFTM
Nature of the test: CHO-K1 CCR6 chemotaxis assay towards CCL20. To be noted: relative -Log IC50; CHO-K1 cells overexpressing human CCR6; migration towards 100 ng/ml CCL20; 4 h. A digest of the protocol:
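Human CCR6-overexpressing CHO-K1 cells (2*10^6 cells/ml) were preincubated 30 min at 37 °C with compound (0.2% DMSO), then allowed to migrate 4 h through 8 µm Transwell pores toward 100 ng/ml CCL20. Migrated cells were counted by CellTiter Glo. −Log IC50 came from four-parameter fits normalised to DMSO without/with CCL20.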

In test [2] the target is T1, human CCR6. Put plainly: Human CCR6-CRE reporter assay. On the set-up: The second construct contained the open reading frame of human CCR6 in the pUNO1 backbone; host or cells: 293FT cells. To be noted: relative -Log IC50; 293FT cells transfected with human CCR6 and CRE-luciferase reporter; 6 μM Forskolin, 6 nM CCL20; 5 h. In a few lines: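 293FT cells transiently co-transfected with human CCR6 and a CRE-luc2P reporter, used 48 h later. Compounds incubated with cells in medium containing 6 μM Forskolin and 6 nM CCL20 (assay-medium levels), 0.1% DMSO final, 5 h at 37° C; luminescence read, relative −Log IC50 from four-parameter fit.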
On the technique in general: A reporter such as luciferase makes a cellular process visible.

The next test concerns Human CD4+ T cells. Nature of the test: CD4+ T cells chemotaxis assay towards CCL20. Conditions: Homo sapiens, CD4+ T cell, 3 h, relative -Log IC50, human CD4+ T cells stimulated with anti-CD3 and anti-CD28, migration towards 150 ng/ml CCL20. The source says: CD4+ T Cells Chemotaxis Assay Towards CCL20
Human CD4+ T cells were isolated from buffy coats of healthy donors using a CD4+ T Cell Isolation Kit (Miltenyi Biotec130-096-533). Isolated T cells were stimulated overnight with anti-CD3 and anti-CD28 antibodies (Biolegend 300314/302934) in growth medium (RPMI1640, 10% heat-inactivated FBS, 1× pen/strep (Gibco 15140)). For the chemotaxis assay, Corning Transwell plates were used with a pore size of 5 m (Corning 3388). T cells were counted and diluted to 6*10^6 cells/ml in chemotaxis medium (RPMI1640, 1% BSA, pen/strep). Compounds were four-fold serially diluted in DMSO. Further dilutions were made in chemotaxis medium. Cells were incubated with test compounds for 30 min at 37° C. prior to initiation of the assay (3*10^6 cells/ml). Final DMSO concentration in the assay was 0.2%. Wells of the Transwell plates were filled with 200 μl chemotaxis medium containing 150 ng/ml CCL20 (R&D systems 360-MP). 50 μl of the cell/compound suspension was added to the inserts of the Transwell plates (150,000 cells/insert). The Transwell plates were placed in an incubator at 37° C., 5% CO2 for 3 h. After 3 h, the number of migrated cells was quantified using CellTiter Glo (Promega). Percentage inhibition values were calculated based on the low and high signal obtained with 0.2% DMSO in chemotaxis medium without and with CCL20, respectively. The relative −Log IC50 was determined with GraphPad Prism 9 using a four-parameter dose-response model.

Consider `CC(C)c1nnc2ccc(-c3ccc(S(=N)(=O)[C@H]4CC[C@H](Nc5ccc(S(F)(F)(F)(F)F)cc5)CC4)cc3)cn12` (relative stereo) [Example 102, {4-[3-(propan-2-yl)-[1,2,4]triazolo[4,3-a]pyridin-6-yl]phenyl}[trans-4-{[4-(pentafluoro-λ^6-sulfanyl)phenyl]Amino}cyclohexyl](imino)-λ^6-sulfanone], for which the values for the IC50 on human CCR6 [1], against human CCR6 [2] and with Human CD4+ T cells were 158 nM, 126 nM and 50.1 nM, respectively.
Consider `Cc1[nH]nc2ccc(-c3ccc(S(=O)(=O)[C@H]4CC[C@H](Nc5ccc(S(F)(F)(F)(F)F)cc5)CC4)cc3)cc12` [Example 6, 4-(pentafluoro-λ^6-sulfanyl)-N-[trans-4-[4-(3-methyl-2H-indazol-5-yl)benzenesulfonyl]cyclohexyl]aniline], for which the IC50 is 25.1 nM against human CCR6 [1], 39.8 nM on human CCR6 [2] and 0.631 nM with Human CD4+ T cells.
In the case of `NC(=O)c1cc(-c2ccc(S(=O)(=O)[C@H]3CC[C@H](Nc4ccc(S(F)(F)(F)(F)F)cc4)CC3)cc2)ccn1` [Example 10, 4-(4-{[trans-4-{[4-(pentafluoro-λ^6-sulfanyl)phenyl]Amino}cyclohexyl]sulfonyl}phenyl)pyridine-2-carboxamide], the IC50 on human CCR6 [1] is 5.01 nM; against human CCR6 [2], 79.4 nM; in the test on Human CD4+ T cells it was 2 nM.
For `N=S(=O)(c1ccc(-c2ccnc(C(N)=O)c2)cc1)N1CCC(Nc2ccc(S(F)(F)(F)(F)F)cc2)CC1` (stereo not drawn) [Example 125, 4-{4-[(4-{[4-(pentafluoro-λ^6-sulfanyl)phenyl]Amino}piperidin-1-yl)sulfonimidoyl]phenyl}pyridine-2-carboxamide], the IC50 on human CCR6 [2] was 200 nM; in the test on Human CD4+ T cells, 126 nM.
Consider `COC1CC2(CCN(c3ccc(S(=O)(=O)N4CCC(Nc5ccc(S(F)(F)(F)(F)F)cc5)CC4)cc3)CC2)C1` [Example 132, 1-(4-{2-methoxy-7-azaspiro[3.5]nonan-7-yl}benzenesulfonyl)-N-[4-(pentafluoro-λ^6-sulfanyl)phenyl]piperidin-4-amine], for which the values for the IC50 against human CCR6 [2] and with Human CD4+ T cells were 79.4 nM and 20 nM, respectively.
For `O=C1NC(=O)C2(CCN(c3ccc(S(=O)(=O)N4CCC(Nc5ccc(S(F)(F)(F)(F)F)cc5)CC4)cc3)CC2)N1` [Example 133, 8-{4-[(4-{[4-(pentafluoro-λ^6-sulfanyl)phenyl]amino}piperidin-1-yl)sulfonyl]phenyl}-1,3,8-triazaspiro[4.5]decane-2,4-dione], the IC50 against human CCR6 [2] was 39.8 nM; in the test on Human CD4+ T cells, 3.98 nM.
Turning to `O=C1NCCC12CCN(c1ccc(S(=O)(=O)N3CCC(Nc4ccc(S(F)(F)(F)(F)F)cc4)CC3)cc1)CC2` [Example 134, 8-{4-[(4-{[4-(pentafluoro-λ^6-sulfanyl)phenyl]amino}piperidin-1-yl)sulfonyl]phenyl}-2,8-diazaspiro[4.5]decan-1-one], the IC50 against human CCR6 [2] is 158 nM; in the test with Human CD4+ T cells, 10 nM.
Consider `O=C1NC2(CCN(c3ccc(S(=O)(=O)N4CCC(Nc5ccc(S(F)(F)(F)(F)F)cc5)CC4)cc3)CC2)CO1` [Example 135, 8-{4-[(4-{[4-(pentafluoro-λ^6-sulfanyl)phenyl]amino}piperidin-1-yl)sulfonyl]phenyl}-3-oxa-1,8-diazaspiro[4.5]decan-2-one], for which the IC50 on human CCR6 [2] was 126 nM; with Human CD4+ T cells, 25.1 nM.
On to `O=S(=O)(c1ccc(N2CCC3(CC2)COC3)cc1)N1CCC(Nc2ccc(S(F)(F)(F)(F)F)cc2)CC1` [Example 136, 1-(4-{2-oxa-7-azaspiro[3.5]nonan-7-yl}benzenesulfonyl)-N-[4-(pentafluoro-λ^6-sulfanyl)phenyl]piperidin-4-amine], for which the IC50 at human CCR6 [2] is 126 nM; in the test on Human CD4+ T cells it was 200 nM.
For the molecule `O=S(=O)(c1ccc(N2CC3CCC(C2)O3)cc1)N1CCC(Nc2ccc(S(F)(F)(F)(F)F)cc2)CC1` [Example 137, 1-(4-{8-oxa-3-azabicyclo[3.2.1]octan-3-yl}benzenesulfonyl)-N-[4-(pentafluoro-λ^6-sulfanyl)phenyl]piperidin-4-amine], the IC50 against human CCR6 [2] was 200 nM; in the test on Human CD4+ T cells, 126 nM.
As for `CC(C)c1nnc2cnc(-c3ccc(S(=O)(=O)N4CCC(Nc5ccc(S(F)(F)(F)(F)F)cc5)CC4)cc3)cn12` [Example 140, N-[4-(pentafluoro-λ^6-sulfanyl)phenyl]-1-{4-[3-(propan-2-yl)-[1,2,4]triazolo[4,3-a]pyrazin-6-yl]benzenesulfonyl}piperidin-4-amine], the half-maximal inhibitory concentration (IC50) at human CCR6 [2] is 63.1 nM; in the test with Human CD4+ T cells it was 2.51 nM.
In the case of `NC(=O)c1cc(-c2ccc(S(=O)(=O)[C@H]3CC[C@H](Nc4ccc(S(F)(F)(F)(F)F)cc4)CC3)cc2)cs1` [Example 148, 4-(4-{[trans-4-{[4-(pentafluoro-λ^6-sulfanyl)phenyl]amino}cyclohexyl]sulfonyl}phenyl)thiophene-2-carboxamide], the IC50 was 50.1 nM against human CCR6 [2] and 5.01 nM with Human CD4+ T cells.
Regarding `Cc1n[nH]c2ncc(-c3ccc(S(=O)(=O)[C@H]4CC[C@H](Nc5ccc(S(F)(F)(F)(F)F)cc5)CC4)cc3)cc12` [Example 150, 4-(pentafluoro-λ^6-sulfanyl)-N-[trans-4-(4-{3-methyl-1H-pyrazolo[3,4-b]pyridin-5-yl}benzenesulfonyl)cyclohexyl]aniline], the IC50 was 63.1 nM at human CCR6 [2] and 1 nM in the test on Human CD4+ T cells.
On to `O=S(=O)(c1ccc(-c2cc(C(F)(F)F)c3nccn3c2)cc1)[C@H]1CC[C@H](Nc2ccc(S(F)(F)(F)(F)F)cc2)CC1` [Example 151, 4-(pentafluoro-λ^6-sulfanyl)-N-[trans-4-{4-[8-(trifluoromethyl)imidazo[1,2-a]pyridin-6-yl]benzenesulfonyl}cyclohexyl]aniline], for which the values for the IC50 on human CCR6 [2] and with Human CD4+ T cells were 63.1 nM and 6.31 nM, respectively.
On to `O=c1[nH]ccn2cc(-c3ccc(S(=O)(=O)[C@H]4CC[C@H](Nc5ccc(S(F)(F)(F)(F)F)cc5)CC4)cc3)cc12` [Example 154, 7-(4-{[trans-4-{[4-(pentafluoro-λ^6-sulfanyl)phenyl]amino}cyclohexyl]sulfonyl}phenyl)-1H,2H-pyrrolo[1,2-a]pyrazin-1-one], for which the figures for the IC50 against human CCR6 [2] and in the test with Human CD4+ T cells were 126 nM and 7.94 nM, respectively.
On to `N#Cc1cc(-c2ccc(S(=O)(=O)[C@H]3CC[C@H](Nc4ccc(S(F)(F)(F)(F)F)cc4)CC3)cc2)cn2ccnc12` [Example 160, 6-(4-{[trans-4-{[4-(pentafluoro-λ^6-sulfanyl)phenyl]amino}cyclohexyl]sulfonyl}phenyl)imidazo[1,2-a]pyridine-8-carbonitrile], for which the IC50 against human CCR6 [2] is 50.1 nM; in the test on Human CD4+ T cells, 3.98 nM.
Regarding `O=S(=O)(c1ccc(-c2ccc3nnc([C@@H]4CCCN4)n3c2)cc1)[C@H]1CC[C@H](Nc2ccc(S(F)(F)(F)(F)F)cc2)CC1` [Example 161, 4-(pentafluoro-λ^6-sulfanyl)-N-[trans-4-(4-{3-[(2S)-pyrrolidin-2-yl]-[1,2,4]triazolo[4,3-a]pyridin-6-yl}benzenesulfonyl)cyclohexyl]aniline], the half-maximal inhibitory concentration (IC50) was 79.4 nM against human CCR6 [2] and 7.94 nM in the test on Human CD4+ T cells.
`O=S(=O)(c1ccc(-c2ccc3nnc(C4CNC4)n3c2)cc1)[C@H]1CC[C@H](Nc2ccc(S(F)(F)(F)(F)F)cc2)CC1` [Example 168, 4-(pentafluoro-λ^6-sulfanyl)-N-[trans-4-{4-[3-(azetidin-3-yl)-[1,2,4]triazolo[4,3-a]pyridin-6-yl]benzenesulfonyl}cyclohexyl]aniline]: the results for the IC50 on human CCR6 [2] and in the test with Human CD4+ T cells were 251 nM and 100 nM, respectively.
